Assay results published in publication PMC6631119, “Nasal Administration and Plasma Pharmacokinetics of Parathyroid Hormone Peptide PTH 1-34 for the Treatment of Osteoporosis” (Pharmaceutics, 2019).
Like-named read-outs stand apart in the source and are kept apart here.

Key:
[1] = Healthy human volunteer plasma pharmacokinetics of PTH 1-34 (open cross-over, ELISA); format: in vivo
Procedure: An open cross-over clinical IMP (investigative medicinal product) study was conducted in seven healthy female subjects aged over 55 years (mean age 67.7, range 58 to 81 years). Each participant provided informed consent in accordance with ethical committee requirements and good clinical practice. Pre-study screening assessments were carried out within 21 days of the participants receiving their first dose (Supplementary Materials: Section S1). Inclusion and exclusion criteria were applied (Supplementary Materials: Section S2). Participants were admitted to the study centre on the morning of dosing, having abstained from alcohol and smoking for at least 24 h previously and fasted from midnight. Participants were given a light meal on arrival. A cannula was then positioned in the participant’s arm or hand to facilitate the collection of blood samples. The pre-dose sample was taken. Participants received a single subcutaneous injection of 20 μg teriparatide into the abdomen at their first trial visit. Following a seven day wash out period, each participant self-administered 90 μg PTH 1-34 from the nasal spray formulation using the Rexam SP270 nasal spray device; the patients had previously been trained in operation of the Rexam device. Any episodes of sneezing after administration of the nasal formulation were recorded. The nasal spray formulation contained Tc-99m-DTPA, 3–5 MBq per Rexam SP270 nasal spray dose, resulting in an effective radiation dose of less than 0.14 mSv to each participant.
Following either subcutaneous or intranasal dosing, 10 mL blood samples (Becton Dickinson sodium heparin) were taken at 5, 15, 30, 60 120, 180, 240, 300 and 360 min. After each sample was taken, the cannula was flushed with 10 mL 0.9% saline. Blood was stored on ice and centrifuged within 30 min to prepare plasma (4 °C, 1100–1300 g, 10 min). These samples were stored at −20 °C before dispatching to Simbec Research Ltd. (Merthyr Tydfil, UK) for quantification by validated ELISA, in compliance with The UK Good Laboratory Practice Regulations 1999 (Statutory Instrument No. 310 6) and subsequent amendment, OECD Principles of Good Laboratory Practice (Paris 1998) and EC Commission Directive 2004/10/EC of February 2004.
Pharmacokinetic data were analysed using Phoenix® WinNonlin® 5.1 (Certara USA, Inc., Princeton, NJ, USA) from quantified PTH 1-34 in the plasma, using recorded sampling times. Summary statistics (mean, median, SD, coefficient of variation [CV%], minimum, maximum, n) and the following plasma pharmacokinetic parameters were calculated: • Cmax • Tmax • Terminal half-life (t1/2) • AUC to 2 h (AUC0–2h) • AUC to last measured time point (AUClast) and corresponding Frel for nasal formulation

[2] = HPLC integrity of spray dried PTH 1-34; format: physicochemical; settings: spray dried dry powder formulations during formulation development, inlet 85 °C
Procedure: The dry powder formulation was also prepared at CPL as 1% w/w PTH (1-34) with 39% Gellan gum, 40% Solutol® HS15, 20% Trehalose. In brief, 97.5 mg Gellan gum was dissolved in 50 mL ultra-pure water overnight. Solutol® HS15 was rendered molten (60 ± 10 °C), and 100 mg was added to the Gellan gum solution and mixed for 30–45 min at 60 °C. 50 mg of trehalose was added and mixed for a further 10 min. A total 5 mg of PTH 1-34 was dissolved in 5 mL of ultra-pure water, and 2.5 mL was added to the formulation. Particles were prepared using a spray dryer Mini Spray Dryer B-290 (Buchi UK Ltd., Oldham, UK) with the inlet set at 85 °C (outlet modified by inlet temperature), the aspirator 100%, the pump set at 006 equivalent to 2 mL/ min, the spray pressure at 4 bar. Particle size of the dry powder formulation manufactured for use in the sheep was not measured, due to limited availability of material due to batch size. However, the particle size of similar formulations when prepared for loading into the delivery devices was monitored using Helos/BF (Sympatec GmbH, Clausthal-Zellerfeld, Germany) during formulation development, where the VMD was 73.7–91.8 µm (×10 = 10.6–23.7 µm, ×50 = 51.5–98.1 µm, ×90 = 142–153 µm). A total 2.4–2.8% of particles were below 10 µm. As the vast majority of particles were >10 µm, the formulations would be expected to be nasally deposited.

[3] = healthy female volunteers aged over 55 y, single 20 μg teriparatide subcutaneous injection into abdomen (Forsteo pen), plasma ELISA, mean of n = 7

- F rel ([1]; female, plasma, inhaled or intranasal, 90 ug, human, 90 μg intranasal vs 20 μg subcutaneous, all seven subjects included in the calculation, read-out: bioavailability after intranasal dosing compared to subcutaneous injection of Forsteo): 0.26%
- Cmax [1, 3]: 253 pg/mL
- t½ [1, 3]: 65 min
- bioavailability after intranasal dosing compared to subcutaneous injection of Forsteo ([1]; human, 90 μg intranasal vs 20 μg subcutaneous, only the subjects with measurable plasma concentrations): approximately 1%
- Tmax ([1]; human, inhaled or intranasal, 90 ug, healthy female volunteers aged over 55 y, single 90 μg PTH 1-34 intranasal liquid spray with 7.5% w/v Solutol HS15 (Rexam SP270), plasma ELISA, mean of n = 7, not detectable in 5 of 7): 9 min
- Cmax ([1]; human, inhaled or intranasal, 90 ug, healthy female volunteers aged over 55 y, single 90 μg PTH 1-34 intranasal liquid spray with 7.5% w/v Solutol HS15 (Rexam SP270), plasma ELISA, mean of n = 7, not detectable in 5 of 7, read-out: Cmax): 5 pg/mL
- integrity of the spray dried PTH 1-34: purity by HPLC [2]: > 82.5%
Structure (SMILES): CC[C@H](C)[C@H](NC(=O)[C@H](CCC(=O)O)NC(=O)[C@H](CO)NC(=O)[C@@H](NC(=O)[C@@H](N)CO)C(C)C)C(=O)N[C@@H](CCC(N)=O)C(=O)N[C@@H](CC(C)C)C(=O)N[C@@H](CCSC)C(=O)N[C@@H](Cc1cnc[nH]1)C(=O)N[C@@H](CC(N)=O)C(=O)N[C@@H](CC(C)C)C(=O)NCC(=O)N[C@@H](CCCCN)C(=O)N[C@@H](Cc1cnc[nH]1)C(=O)N[C@@H](CC(C)C)C(=O)N[C@@H](CC(N)=O)C(=O)N[C@@H](CO)C(=O)N[C@@H](CCSC)C(=O)N[C@@H](CCC(=O)O)C(=O)N[C@@H](CCCN=C(N)N)C(=O)N[C@H](C(=O)N[C@@H](CCC(=O)O)C(=O)N[C@@H](Cc1c[nH]c2ccccc12)C(=O)N[C@@H](CC(C)C)C(=O)N[C@@H](CCCN=C(N)N)C(=O)N[C@@H](CCCCN)C(=O)N[C@@H](CCCCN)C(=O)N[C@@H](CC(C)C)C(=O)N[C@@H](CCC(N)=O)C(=O)N[C@@H](CC(=O)O)C(=O)N[C@H](C(=O)N[C@@H](Cc1cnc[nH]1)C(=O)N[C@@H](CC(N)=O)C(=O)N[C@@H](Cc1ccccc1)C(=O)O)C(C)C)C(C)C [PTH 1-34, PTH 1-34 acetate]
